The target in the assay is T1, IgE-Tb / FcεR1α-Y131A-AF488 (soluble IgE receptor FcεR1α with a Y131A mutation) (Homo sapiens, UniProt P0DOX4, C225A/N265Q/N371Q).
T1 construct: 86 nmoles of IgE-Fc(N265Q, N371Q) (Young et al., 1995)
The experiment in a line: In vitro FRET assay of IgE-Tb binding to FcεR1α-Y131A-AF488, 2 hours incubation (examples 16 and 89). The settings on record: 5 nM IgE-Tb, 25 nM FcεR1α-Y131A-AF488; 2 hours at room temperature; read-out: FRET IC50 range. As to the method: 86 nmoles of IgE-Fc(N265Q, N371Q) (Young et al., 1995) at 172 μM in 100 mM NaHCO3, pH 9.5 was added to 1 mg of LanthaScreen™ Amine Reactive Tb Chelate (ThermoFisher catalogue number PV3583) and incubated for 16 hours at 20° C. The material was then buffer exchanged into Phosphate Buffered Saline (being, 137 mM NaCl, 2.7 mM KCl, 10 mM Na2HPO4, 1.8 mM K2HPO4, pH 7.4) and the material quantified and the degree of Tb conjugation determined by measuring the absorption at 280 nm and 343 nm.
400 nmoles FcεR1α (Y131A mutant) (Cook et al., 1997) at 400 μM in 100 mM NaOAc pH 5.5 was reacted with 1 mM final concentration sodium periodate (in 100 mM NaOAc, pH 5.5) for 60 minutes at 22° C. […]
175 nmoles of protein was added to 1 mg of Alexa Fluor™ 488 hydrazide (Invitrogen) and incubated for 16 hours at 22° C. […] The protein was buffer exchanged into Phosphate Buffered Saline (being, 137 mM NaCl, 2.7 mM KCl, 10 mM Na2HPO4, 1.8 mM K2HPO4, pH 7.4) and the material quantified and the degree of Alexa Fluor™ 488 conjugation determined by measuring the absorption at 280 nm and 495 nm.
The aim was to measure binding of IgE-Tb to receptor, and the inhibition thereof by compounds, using an in vitro Fluorescence Resonance Energy Transfer (FRET) Assay. […]
Measurement of FRET for each well was carried out by exciting at 330 nm and measuring emission at 495/520 nm using an Envision plate reader (Perkin Elmer). […]

SMILES strings stand for the structures.

T1 sequence (P0DOX4 224-547 C225A/N265Q/N371Q): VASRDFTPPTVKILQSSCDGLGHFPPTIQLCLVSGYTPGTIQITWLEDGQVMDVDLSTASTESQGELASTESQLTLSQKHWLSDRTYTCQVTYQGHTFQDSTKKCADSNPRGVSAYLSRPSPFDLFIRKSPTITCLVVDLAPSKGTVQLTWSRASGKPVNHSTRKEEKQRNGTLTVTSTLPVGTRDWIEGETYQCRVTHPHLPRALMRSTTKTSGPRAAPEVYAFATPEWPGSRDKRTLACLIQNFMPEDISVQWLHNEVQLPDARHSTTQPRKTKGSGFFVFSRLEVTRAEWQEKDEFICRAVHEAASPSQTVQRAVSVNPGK

Take `CCNC(=O)N[C@H]1C[C@H](O)c2cc(S(=O)(=O)NCC(C)C)c3cc(C4CC4)ncc3c21` (racemic) [Example 16, 1-ethyl-3-[trans-(7RS,9RS)-3-cyclopropyl-7-hydroxy-5-(2-methylpropylsulfamoyl)-8,9-dihydro-7H-cyclopenta[h]isoquinolin-9-yl]urea]: the IC50 lay in the range of 100 to 2000 nM.

For the compound `CC(C)(F)CNS(=O)(=O)c1cc2c(c3cnc(C4CC4)cc13)C(N)CC2NC(=O)c1cccnc1` (centres unmarked) [Example 89, N-[9-amino-3-cyclopropyl-5-[(2-fluoro-2-methylpropyl)sulfamoyl]-8,9-dihydro-7H-cyclopenta[h]isoquinolin-7-yl]pyridine-3-carboxamide], the IC50 was in the range of 100 to 2000 nM.

Source of the values: patent publication US20230192646A1, “DIHYDRO-CYCLOPENTA-ISOQUINOLINE DERIVATIVES” (UCB Biopharma SRL, priority 2019, published 2023).
